Measured values from ChEMBL document CHEMBL3396981, “Synthesis and in vitro biological evaluation of 2-(phenylcarbamoyl)phenyl 4-substituted benzoates” (Bioorg Med Chem, 2015).
pIC50: −log10 of the molar value. Values after ≈ are worked out from the molar mass of the structure shown.

Experiments:
[1] = test system: Mycobacterium tuberculosis; test: Antimycobacterial activity against Mycobacterium tuberculosis H37Rv 331/88 after 14 days by microdilution method; format: functional; details: H37Rv 331/88, 336 h
[2] = test system: Mycobacterium tuberculosis; test: Antimycobacterial activity against Mycobacterium tuberculosis H37Rv 331/88 after 21 days by microdilution method; format: functional; details: H37Rv 331/88, 504 h
Mycobacterium avium [3] = test: Antimycobacterial activity against INH,RIF,OFX,EMB-resistant Mycobacterium avium 330/88 after 14 days by microdilution method; format: functional; details: 330/88, 336 h
Mycobacterium avium [4] = test: Antimycobacterial activity against INH,RIF,OFX,EMB-resistant Mycobacterium avium 330/88 after 21 days by microdilution method; format: functional; details: 330/88, 504 h
Mycobacterium kansasii [5] = test: Antimycobacterial activity against Mycobacterium kansasii 235/80 after 7 days by microdilution method; format: functional; details: 235/80, 168 h
Mycobacterium kansasii [6] = test: Antimycobacterial activity against Mycobacterium kansasii 235/80 after 14 days by microdilution method; format: functional; details: 235/80, 336 h
Mycobacterium kansasii [7] = test: Antimycobacterial activity against Mycobacterium kansasii 235/80 after 21 days by microdilution method; format: functional; details: 235/80, 504 h
Mycobacterium kansasii [8] = test: Antimycobacterial activity against Mycobacterium kansasii 6509/96 after 7 days by microdilution method; format: functional; details: 6509/96, 168 h
Mycobacterium kansasii [9] = test: Antimycobacterial activity against Mycobacterium kansasii 6509/96 after 14 days by microdilution method; format: functional; details: 6509/96, 336 h
Mycobacterium kansasii [10] = test: Antimycobacterial activity against Mycobacterium kansasii 6509/96 after 21 days by microdilution method; format: functional; details: 6509/96, 504 h
HepG2 [11] = test: Cytostatic activity against human HepG2 cells after 72 hrs by MTT assay; format: functional, cell-based; details: HepG2, 72 h
HepG2 [12] = test: Cytotoxicity against human HepG2 cells after 72 hrs by MTT assay; format: cell-based; details: HepG2, 72 h
[13] = Selectivity index, ratio of IC50 for human HepG2 cells to MIC for Mycobacterium tuberculosis; format: toxicity, cell-based; details: read-out: Selectivity Index
[14] = Selectivity index, ratio of IC50 for human HepG2 cells to MIC for atypical mycobacteria
Trichosporon asahii [15] = test: Antifungal activity against Trichosporon asahii 1188 after 24 hrs by broth microdilution method; format: functional; details: Trichosporon asahii, 1188, 24 h
Trichosporon asahii [16] = test: Antifungal activity against Trichosporon asahii 1188 after 48 hrs by broth microdilution method; format: functional; details: Trichosporon asahii, 1188, 48 h

Compound	MIC [1] [µM]	MIC [2] [µM]	MIC (Mycobacterium avium [3]) [µM]	MIC (Mycobacterium avium [4]) [µM]	MIC (Mycobacterium kansasii [5]) [µM]	MIC (Mycobacterium kansasii [6]) [µM]	MIC (Mycobacterium kansasii [7]) [µM]	MIC (Mycobacterium kansasii [8]) [µM]	MIC (Mycobacterium kansasii [9]) [µM]	MIC (Mycobacterium kansasii [10]) [µM]	pIC50 (HepG2 [11])	pIC50 (HepG2 [12])	selectivity ratio [13]	Selectivity Index [14]	MIC (Trichosporon asahii [15]) [µM]	MIC (Trichosporon asahii [16]) [µM]
O=C(Nc1ccc(C(F)(F)F)cc1)c1cc(Cl)ccc1O	2 (≈ 0.631 µg/mL)	2 (≈ 0.631 µg/mL)	8 (≈ 2.53 µg/mL)	8 (≈ 2.53 µg/mL)	1 (≈ 0.316 µg/mL)	2 (≈ 0.631 µg/mL)	2 (≈ 0.631 µg/mL)	2 (≈ 0.631 µg/mL)	2 (≈ 0.631 µg/mL)	2 (≈ 0.631 µg/mL)						
O=C(Nc1ccc(C(F)(F)F)cc1)c1cc(Br)ccc1O	1 (≈ 0.36 µg/mL)	1 (≈ 0.36 µg/mL)	2 (≈ 0.72 µg/mL)	2 (≈ 0.72 µg/mL)	2 (≈ 0.72 µg/mL)	2 (≈ 0.72 µg/mL)	4 (≈ 1.44 µg/mL)	2 (≈ 0.72 µg/mL)	4 (≈ 1.44 µg/mL)	4 (≈ 1.44 µg/mL)						
O=C(Oc1ccc(Cl)cc1C(=O)Nc1ccc(C(F)(F)F)cc1)c1ccc(Br)cc1	1 (≈ 0.499 µg/mL)	1 (≈ 0.499 µg/mL)	4 (≈ 1.99 µg/mL)	4 (≈ 1.99 µg/mL)	0.5 (≈ 0.249 µg/mL)	1 (≈ 0.499 µg/mL)	1 (≈ 0.499 µg/mL)	1 (≈ 0.499 µg/mL)	2 (≈ 0.997 µg/mL)	2 (≈ 0.997 µg/mL)	4.84	< 4.30	> 50	>12.5		
O=C(Nc1ccc(Cl)c(Cl)c1)c1cc(Cl)ccc1O	4 (≈ 1.27 µg/mL)	8 (≈ 2.53 µg/mL)	32 (≈ 10.1 µg/mL)	32 (≈ 10.1 µg/mL)	4 (≈ 1.27 µg/mL)	8 (≈ 2.53 µg/mL)	8 (≈ 2.53 µg/mL)	8 (≈ 2.53 µg/mL)	8 (≈ 2.53 µg/mL)	8 (≈ 2.53 µg/mL)						
O=C(Oc1ccc(Cl)cc1C(=O)Nc1ccc(C(F)(F)F)cc1)c1ccc(C(F)(F)F)cc1	1 (≈ 0.488 µg/mL)	1 (≈ 0.488 µg/mL)	1 (≈ 0.488 µg/mL)	4 (≈ 1.95 µg/mL)	1 (≈ 0.488 µg/mL)	2 (≈ 0.976 µg/mL)	4 (≈ 1.95 µg/mL)	1 (≈ 0.488 µg/mL)	2 (≈ 0.976 µg/mL)	4 (≈ 1.95 µg/mL)						
OC(Cn1cncn1)(Cn1cncn1)c1ccc(F)cc1F [FLUCONAZOLE]															4 (≈ 1.23 µg/mL)	9 (≈ 2.76 µg/mL)
Cc1ccc(C(=O)Oc2ccc(Cl)cc2C(=O)Nc2ccc(Cl)c(Cl)c2)cc1	1 (≈ 0.435 µg/mL)	1 (≈ 0.435 µg/mL)	8 (≈ 3.48 µg/mL)	8 (≈ 3.48 µg/mL)	1 (≈ 0.435 µg/mL)	2 (≈ 0.869 µg/mL)	2 (≈ 0.869 µg/mL)	2 (≈ 0.869 µg/mL)	4 (≈ 1.74 µg/mL)	4 (≈ 1.74 µg/mL)	5.59	< 4.30	> 50	>6.25		
O=C(Oc1ccc(Br)cc1C(=O)Nc1ccc(C(F)(F)F)cc1)c1ccc([N+](=O)[O-])cc1	0.5 (≈ 0.255 µg/mL)	0.5 (≈ 0.255 µg/mL)	1 (≈ 0.509 µg/mL)	2 (≈ 1.02 µg/mL)	0.5 (≈ 0.255 µg/mL)	1 (≈ 0.509 µg/mL)	1 (≈ 0.509 µg/mL)	0.5 (≈ 0.255 µg/mL)	0.5 (≈ 0.255 µg/mL)	1 (≈ 0.509 µg/mL)	5.90	< 4.30	> 100	>25		
O=C(Oc1ccc(Cl)cc1C(=O)Nc1ccc(C(F)(F)F)cc1)c1ccc([N+](=O)[O-])cc1	0.5 (≈ 0.232 µg/mL)	1 (≈ 0.465 µg/mL)	4 (≈ 1.86 µg/mL)	4 (≈ 1.86 µg/mL)	1 (≈ 0.465 µg/mL)	2 (≈ 0.93 µg/mL)	4 (≈ 1.86 µg/mL)	1 (≈ 0.465 µg/mL)	2 (≈ 0.93 µg/mL)	4 (≈ 1.86 µg/mL)	5.94	< 4.30	> 50	>12.5		
